In ChEMBL document CHEMBL1201862, “PubChem BioAssay data set” (2004):
Activity calls are given as the source filed them.

What was measured:
[1] = viability of PTEN-deleted HCT116 cells – cell-based, HCT116 PTEN knockout, dose response (AID 1047); assay type: functional;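 further: HCT116 colon tumor cells with PTEN knocked out; cells exposed to compound for 60 hours before readout; potency for loss of cell viability measured by luminescence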
Cytochrome P450 2C19 = Cytochrome P450 2C19 (Homo sapiens, UniProt P33261); test: Cytochrome panel assay with activity outcomes. Panel member name: p450-cyp2c19 Compounds with AC50 equal or less than 10 uM are considered active; assay type: functional; conditions: read-out: AC50
Chain of Cytochrome P450 2C19 (P33261 whole entry): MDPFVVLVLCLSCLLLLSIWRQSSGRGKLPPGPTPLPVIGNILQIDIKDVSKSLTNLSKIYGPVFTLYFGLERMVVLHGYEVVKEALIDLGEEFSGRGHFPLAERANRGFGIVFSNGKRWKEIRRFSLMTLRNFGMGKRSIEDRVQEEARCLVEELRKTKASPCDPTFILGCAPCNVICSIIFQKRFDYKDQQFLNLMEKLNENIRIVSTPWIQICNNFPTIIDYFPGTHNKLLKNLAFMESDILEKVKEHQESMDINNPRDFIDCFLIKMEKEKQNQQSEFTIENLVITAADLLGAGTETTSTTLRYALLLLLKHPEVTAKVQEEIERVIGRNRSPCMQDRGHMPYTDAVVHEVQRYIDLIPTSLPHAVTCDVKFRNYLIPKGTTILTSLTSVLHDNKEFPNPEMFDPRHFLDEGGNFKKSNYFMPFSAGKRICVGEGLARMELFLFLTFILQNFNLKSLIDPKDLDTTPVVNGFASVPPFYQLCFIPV

[2] = viability of HCT116 lacking mutant beta-catenin – cell-based, human colon tumor, dose response (AID 1045); assay type: functional;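 further: HCT116 colon tumor cells with beta catenin knocked out; cells exposed to compound for 60 hours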
[3] = viability of uninfected HEp-2 cells – cell-based, HTS, cytotoxicity control for RSV inhibitor project, dose response (AID 2410); assay type: functional; conditions: human respiratory syncytial virus
H9c2 = test: cells; assay type: functional, cell-based; conditions: Rattus norvegicus, H9c2, Myocardium;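 further: confirmatory concentration-response retest of ultra-high-throughput screening hits for modulation of myocardial damage; cell death induced by hydrogen peroxide oxidative stress; compound pretreatment for 60 min then peroxide exposure for 2 h; potency is for protecting the cells against peroxide damage rather than for killing them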
Streptokinase A = molecular target: T1, Streptokinase A (Streptococcus pyogenes serotype M1, UniProt P10520); test: viability-normalized secreted streptokinase activity reduction – plasminogen activation absorbance, OD405, dose response (AID 1914); assay type: functional, Streptococcus pyogenes M1 GAS;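 further: secreted streptokinase activity via plasminogen activation per viability signal from cell pellet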
T1 sequence (P10520 whole entry): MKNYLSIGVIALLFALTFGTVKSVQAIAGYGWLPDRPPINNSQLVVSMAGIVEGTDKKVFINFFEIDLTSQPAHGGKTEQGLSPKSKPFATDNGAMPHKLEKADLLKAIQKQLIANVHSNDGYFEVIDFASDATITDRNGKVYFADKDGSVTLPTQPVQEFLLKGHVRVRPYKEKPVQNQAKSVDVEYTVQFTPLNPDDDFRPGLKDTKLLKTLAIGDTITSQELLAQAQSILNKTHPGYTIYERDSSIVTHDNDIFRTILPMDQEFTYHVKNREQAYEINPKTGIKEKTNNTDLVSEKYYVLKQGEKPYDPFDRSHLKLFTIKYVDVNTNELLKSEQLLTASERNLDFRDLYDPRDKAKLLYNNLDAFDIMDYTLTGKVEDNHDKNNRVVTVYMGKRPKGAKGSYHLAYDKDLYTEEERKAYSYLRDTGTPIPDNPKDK

Cytochrome P450 3A4 = Cytochrome P450 3A4 (Homo sapiens, UniProt P08684);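 further: CYP3A4 tested as one member of a cytochrome P450 panel screen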
Chain of Cytochrome P450 3A4 (P08684 whole entry): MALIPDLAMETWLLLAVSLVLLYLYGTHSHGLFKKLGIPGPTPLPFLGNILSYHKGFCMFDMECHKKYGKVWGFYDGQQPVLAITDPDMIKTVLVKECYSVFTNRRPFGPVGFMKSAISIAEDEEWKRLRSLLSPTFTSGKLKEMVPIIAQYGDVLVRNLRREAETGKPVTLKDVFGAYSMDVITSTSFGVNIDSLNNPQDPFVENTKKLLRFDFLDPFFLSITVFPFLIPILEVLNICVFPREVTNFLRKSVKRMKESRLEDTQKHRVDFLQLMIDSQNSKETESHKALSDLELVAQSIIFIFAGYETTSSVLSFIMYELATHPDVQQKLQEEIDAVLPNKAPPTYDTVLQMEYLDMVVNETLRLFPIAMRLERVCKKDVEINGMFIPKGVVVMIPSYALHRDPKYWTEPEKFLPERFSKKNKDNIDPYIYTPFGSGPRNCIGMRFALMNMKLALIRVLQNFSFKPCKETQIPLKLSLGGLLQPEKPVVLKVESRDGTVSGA

Streptococcus = test: GAS UMAA2166 growth inhibition – luminescence, BacTiterGlo, counter-screen for streptokinase expression inhibitor project, dose response (AID 1915); assay type: functional, organism-based;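 further: potency for reduction of bacterial viability or growth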
[4] = tested on: Streptococcus sp. 'group A'; test: Streptococcus pyogenes SK(-)GAS viability under kanamycin – luminescence, BacTiterGlo, confirmation, counter-screen for streptokinase expression inhibitor project, dose response (AID 1900); assay type: functional, organism-based
[5] = molecular target: T2, Rac GTPase-activating protein 1 (Homo sapiens, UniProt Q9H0H5); test: blockers of MgcRacGAP-driven Rac1 GTP hydrolysis – biochemical, ADP Hunter fluorescence, primary and confirmatory, confirmation (AID 624330); assay type: functional
T2 sequence (Q9H0H5 whole entry): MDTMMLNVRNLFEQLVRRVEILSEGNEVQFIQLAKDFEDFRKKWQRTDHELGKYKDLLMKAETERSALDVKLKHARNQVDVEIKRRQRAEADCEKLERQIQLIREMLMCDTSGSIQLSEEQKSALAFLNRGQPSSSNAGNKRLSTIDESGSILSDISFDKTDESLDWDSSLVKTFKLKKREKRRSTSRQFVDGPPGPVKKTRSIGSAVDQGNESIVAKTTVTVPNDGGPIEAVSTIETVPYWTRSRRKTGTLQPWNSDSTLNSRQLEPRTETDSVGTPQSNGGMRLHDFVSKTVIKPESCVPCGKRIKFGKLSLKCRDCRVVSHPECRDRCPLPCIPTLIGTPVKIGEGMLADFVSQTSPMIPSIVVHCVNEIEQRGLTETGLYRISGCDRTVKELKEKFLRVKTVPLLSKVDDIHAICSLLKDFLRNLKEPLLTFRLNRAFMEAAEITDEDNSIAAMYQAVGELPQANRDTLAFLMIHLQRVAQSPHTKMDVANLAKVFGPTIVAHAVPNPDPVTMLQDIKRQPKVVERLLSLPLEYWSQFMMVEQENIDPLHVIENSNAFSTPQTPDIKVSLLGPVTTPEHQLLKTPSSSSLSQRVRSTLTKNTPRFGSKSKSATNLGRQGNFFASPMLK

[6] = reduction of Shn3 3'UTR-driven luciferase in osteoblasts – cell-based, Clone20 osteoblasts, firefly luciferase, cherry-picked, dose response (AID 624132); assay type: functional;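 further: firefly luciferase luminescence from reporter carrying the Shn3 3'UTR in osteoblasts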
[7] = loss of viability in HepG2 cells – cell-based, CellTiter-Glo, cherry-picked, cytotoxicity control for Shn3 inhibitor project, dose response (AID 624134); assay type: functional
[8] = non-specific 3'UTR reporter inhibition in Clone20-Shn3RL – cell-based, Renilla luciferase, cherry-picked, counter-screen for Shn3 inhibitor project, dose response (AID 624133); assay type: functional
[9] = molecular target: T3, Corticotropin-releasing factor receptor 2/Corticotropin-releasing factor-binding protein (Homo sapiens, UniProt P24387+Q13324); test: activators of CRF receptor 2 with binding protein – uHTS hits, confirmation (AID 602473); assay type: functional; conditions: read-out: EC50_Mean
T3 sequence (Q13324 whole entry): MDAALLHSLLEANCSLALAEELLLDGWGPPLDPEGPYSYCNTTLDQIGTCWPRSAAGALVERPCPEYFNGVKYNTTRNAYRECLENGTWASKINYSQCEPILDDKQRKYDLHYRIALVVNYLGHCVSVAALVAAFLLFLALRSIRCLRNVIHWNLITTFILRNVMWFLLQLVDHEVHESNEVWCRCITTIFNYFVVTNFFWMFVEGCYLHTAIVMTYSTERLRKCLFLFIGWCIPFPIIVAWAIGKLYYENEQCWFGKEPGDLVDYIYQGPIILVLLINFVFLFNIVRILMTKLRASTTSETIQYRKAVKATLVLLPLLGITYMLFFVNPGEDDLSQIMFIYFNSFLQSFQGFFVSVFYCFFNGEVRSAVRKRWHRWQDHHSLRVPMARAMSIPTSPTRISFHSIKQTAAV
T3 sequence (P24387 whole entry): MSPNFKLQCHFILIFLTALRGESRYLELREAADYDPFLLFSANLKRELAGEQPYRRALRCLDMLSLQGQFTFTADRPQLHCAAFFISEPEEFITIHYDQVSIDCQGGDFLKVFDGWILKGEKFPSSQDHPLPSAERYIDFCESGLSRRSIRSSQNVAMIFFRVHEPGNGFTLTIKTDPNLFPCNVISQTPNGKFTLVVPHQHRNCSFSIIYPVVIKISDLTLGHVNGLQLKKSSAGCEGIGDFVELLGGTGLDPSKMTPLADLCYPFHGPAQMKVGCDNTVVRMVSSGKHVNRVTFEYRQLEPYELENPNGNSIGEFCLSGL

[10] = Luminescence Cell-Based Dose Retest to Confirm Inhibitors of Cancer Stem Cells. [Related pubchem assays (depositor defined):AID2717, AID2721]; assay type: functional; conditions: Homo sapiens

CC(=O)/C=C/c1ccc2ccccc2n1
EC50 [1]: 2.58 µM (active) | AC50 (Cytochrome P450 2C19): 39.8 µM (inconclusive) | EC50 [2]: 2.42 µM (active)

CC(C)c1ccc(NC(=O)/C(C#N)=C/c2ccncc2)cc1
CC50 [3]: 14.5 µM (active)

COc1cc(NC(=O)c2cc3nc(-c4ccccc4)cc(-c4ccccc4)n3n2)cc(OC)c1OC
IC50 (H9c2): 8.62 µM (active) | EC50 (Streptokinase A): > 150 µM (not active) | AC50 (Cytochrome P450 3A4): 10 µM (inconclusive) | EC50 (Streptococcus): > 150 µM (not active) | EC50 [4]: 11.7 µM (active)

Cc1ccc(CN2CCN(CC3CC4C=CC3C4)CC2)cc1 (centres undefined)
IC50 [5]: 113 µM (active)

Cc1cc2cc(CN(CC3CCCO3)C(S)=Nc3ccccc3)c(O)nc2cc1C (centres undefined)
EC50 [1]: 4.38 µM (active) | AC50 [6]: 2.91 µM (active) | AC50 [7]: 48.9 µM (active) | AC50 [8]: 9.59 µM (active) | EC50 [2]: 5.3 µM (active)

C[C@]12CCC(O)CC1CCC1C2CC[C@]2(C)C(c3cc(C(F)(F)F)n[nH]3)CCC12 (some centres undefined)
EC50 (Streptokinase A): 4.19 µM (active) | EC50 [9]: 11.1 µM (active)

CC(C)CCOc1ccc(-c2c(=O)n(OCc3ccc([N+](=O)[O-])cc3)c3ccccc3[n+]2[O-])cc1
EC50 [1]: 20.7 µM (active) | EC50 [2]: 28.3 µM (active)

CC1Nc2ncnc(N3CCN(c4ccccc4)CC3)c2N(Cc2ccc(Cl)cc2)C1=O (centres undefined)
IC50 (H9c2): > 79 µM (inactive) | CC50 [3]: 26.4 µM (active)

COc1cc(C(=O)N/N=C/c2ccc(OC(=O)c3ccccc3Cl)c(OC)c2)ccc1O
EC50 (Streptokinase A): > 150 µM (not active) | EC50 (Streptococcus): 8.59 µM (active) | EC50 [4]: 6.17 µM (active)

C=C(C)COc1ccc(-c2nc(N)ncc2Oc2ccc(OC)cc2)c(O)c1
EC50 (Streptokinase A): > 150 µM (not active) | EC50 (Streptococcus): > 150 µM (not active) | EC50 [4]: 47.6 µM (active)

COc1cc(OC)cc(C(=O)Nc2cccc(-c3ccc(N4CCOCC4)nn3)c2)c1
EC50 (Streptokinase A): > 150 µM (not active) | EC50 (Streptococcus): > 150 µM (not active) | EC50 [4]: > 150 µM (not active)

CCc1cc2cccc(C)c2nc1SCC(=O)c1ccc(NC(C)=O)cc1
AC50 [10]: 2.94 µM (active)

CCCCCCC(C)(C)c1ccc([C@@H]2C[C@H](O)CC[C@H]2CCCO)c(O)c1 [CP-55940]
AC50 [10]: 3.58 µM (active)

Cc1ccc(C)c(C(=O)COc2ccccc2[N+](=O)[O-])c1
EC50 [1]: 10.2 µM (active) | EC50 [2]: 9.49 µM (active)
